The source made the active and inactive calls. The rule behind the calls is not given here.
How the values were obtained:
Cryptococcus neoformans = assay: Antifungal activity against Cryptococcus neoformans ATCC 90112 by disk diffusion method; type: functional
Micrococcus luteus = assay: Antibacterial activity against Micrococcus luteus Presque Isle 456 by disk diffusion method; type: functional
Staphylococcus aureus = assay: Antibacterial activity against Staphylococcus aureus ATCC 29213 by disk diffusion method; type: functional
Enterococcus faecalis = assay: Antibacterial activity against Enterococcus faecalis ATCC 29212 at 100 ug/disk by disk diffusion method; type: functional, organism-based
Bacillus subtilis = assay: Antibacterial activity against Bacillus subtilis Presque Isle 620 by disk diffusion method; type: functional
Streptococcus pneumoniae [1] = assay: Antibacterial activity against Streptococcus pneumoniae ATCC 6303 by disk diffusion method; type: functional
Streptococcus pneumoniae [2] = assay: Antibacterial activity against penicillin-resistant Streptococcus pneumoniae isolate by disk diffusion method; type: functional
Streptococcus pneumoniae [3] = assay: Antibacterial activity against invasive Streptococcus pneumoniae isolate by disk diffusion method; type: functional
[4] = system: Streptococcus sp. 'group A'; assay: Antibacterial activity against group A Streptococcus isolate at 100 ug/disk by disk diffusion method; type: functional, organism-based
[5] = system: Stenotrophomonas maltophilia; assay: Antibacterial activity against Stenotrophomonas maltophilia ATCC 13637 at 100 ug/disk by disk diffusion method; type: functional, organism-based
Escherichia coli = assay: Antibacterial activity against Escherichia coli ATCC 25922 at 100 ug/disk by disk diffusion method; type: functional, organism-based
Enterobacter cloacae = assay: Antibacterial activity against Enterobacter cloacae ATCC 13047 at 100 ug/disk by disk diffusion method; type: functional, organism-based
Neisseria gonorrhoeae = assay: Antibacterial activity against Neisseria gonorrhoeae ATCC 49226 by disk diffusion method; type: functional
Candida albicans = assay: Antifungal activity against Candida albicans ATCC 90028 by disk diffusion method; type: functional

CCOC1=C(C)C(=O)c2cc(=O)n(C)cc2C1=O [CRIBROSTATIN 2] was tested, and the MIC (Cryptococcus neoformans) was 12.5 µg/disc, the MIC (Micrococcus luteus) was 50 µg/disc and the MIC (Staphylococcus aureus) was 12.5 µg/disc. The Activity (Enterococcus faecalis) was “inactive”, the MIC (Bacillus subtilis) was 25 µg/disc and the MIC (Streptococcus pneumoniae [1]) was 12.5 µg/disc. The MIC (Streptococcus pneumoniae [2]) was 25 µg/disc, the MIC (Streptococcus pneumoniae [3]) was 50 µg/disc and the Activity [4] was “inactive”. The Activity [5] was “inactive”, the Activity (Escherichia coli) was “inactive” and the Activity (Enterobacter cloacae) was “inactive”. It also gave an MIC (Neisseria gonorrhoeae) of 0.39 µg/disc and an MIC (Candida albicans) of 3.12 µg/disc.
